From patent US20200290950A1, “ALKAMIDE COMPOUNDS AND USES THEREOF” (NORTH CAROLINA STATE UNIVERSITY, priority 2017, published 2020) come the findings set out here.

The subject of this experiment is RBL-2H3 cells. The experiment can be described thus: Histamine release, competitive EIA. It is filed as cell-based, rat. As to conditions: RBL-2H3 cells treated with A23187, 1 hr. As to the method: FIGS. 1A-1F. A15 inhibits BMMC and RBL-2H3 cell degranulation. The structure of alkamide A15 is shown with different functional groups and carbons in the fatty acid chain labeled (FIG. 1A). BMMCs were plated and stimulated 4 hrs later with 1 μM A23187 and the indicated concentrations of A15 or vehicle only. The percent degranulation was measured after 1 hr (FIG. 1B). RBL-2H3 cells were treated with A23187 and the percent degranulation was determined 1 hr later (FIG. 1C) or every 10 min over a 1 hr time course (FIG. 1D). RBL-2H3 cells were plated and incubated for 4 hrs before the media was aspirated and replaced with media containing 1 μg/mL IgE anti-DNP. Cells were incubated overnight and washed prior to stimulation. The percent degranulation from RBL-2H3 cells was calculated after stimulation with 50 ng/mL DNP-HSA in combination with the indicated concentrations of A15 or vehicle only after 1 hr (FIG. 1E). RBL-2H3 cells were stimulated for 1 hr in Tyrode's buffer before supernatants were collected and levels of histamine were measured using a competitive inhibition EIA kit (FIG. 1F). Data shown are the means±SEM from 3-4 independent experiments (FIG. 1B, FIG. 1C and FIG. 1F) or the means±SEM of triplicate wells from a representative experiment from 3 independent experiments (FIG. 1D and FIG. 1E). […]

Turning to `CCCCCCC/C=C/C=C/C(=O)NCC(C)C` [A15, (2E,4E)-N-Isobutyldodeca-2,4-dienamide], the release of histamine entry is recorded as “inhibited the release of the vasoactive amine histamine”.
